According to patent US9067888B2, “Inhibitors of protein kinases” (Ingenium Pharmaceuticals GmbH, priority 2010, dated 2015):

Columns and labels:
[1] = target: CDK9 (Homo sapiens (Human), UniProt P50750); assay: In vitro kinase inhibition, KinaseProfiler service of Millipore, residual activity; type: biochemical; conditions: for CDK9 10 nM (RA in %) / remaining activity at 0.01 µM: residual activity at 10 nM compound; for CDK9 100 nM (RA in %) / remaining activity at 0.1 µM: residual activity at 100 nM compound; for remaining activity at 0.01 µM: read-out: CDK9 10 nM (RA in %); for remaining activity at 0.1 µM: read-out: CDK9 100 nM (RA in %)
Chain of CDK9 (P50750 whole entry): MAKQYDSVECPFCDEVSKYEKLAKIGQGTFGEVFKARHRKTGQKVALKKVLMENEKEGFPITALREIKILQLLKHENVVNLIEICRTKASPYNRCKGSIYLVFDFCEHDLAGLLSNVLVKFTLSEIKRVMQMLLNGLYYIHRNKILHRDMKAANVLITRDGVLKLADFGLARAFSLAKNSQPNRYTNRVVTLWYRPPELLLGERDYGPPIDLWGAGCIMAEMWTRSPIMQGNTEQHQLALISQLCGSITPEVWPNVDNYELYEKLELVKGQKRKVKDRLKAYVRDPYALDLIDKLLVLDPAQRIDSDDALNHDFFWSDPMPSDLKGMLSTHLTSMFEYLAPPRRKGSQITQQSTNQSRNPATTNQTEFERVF
Chain of CDK9 (O60563 whole entry partner): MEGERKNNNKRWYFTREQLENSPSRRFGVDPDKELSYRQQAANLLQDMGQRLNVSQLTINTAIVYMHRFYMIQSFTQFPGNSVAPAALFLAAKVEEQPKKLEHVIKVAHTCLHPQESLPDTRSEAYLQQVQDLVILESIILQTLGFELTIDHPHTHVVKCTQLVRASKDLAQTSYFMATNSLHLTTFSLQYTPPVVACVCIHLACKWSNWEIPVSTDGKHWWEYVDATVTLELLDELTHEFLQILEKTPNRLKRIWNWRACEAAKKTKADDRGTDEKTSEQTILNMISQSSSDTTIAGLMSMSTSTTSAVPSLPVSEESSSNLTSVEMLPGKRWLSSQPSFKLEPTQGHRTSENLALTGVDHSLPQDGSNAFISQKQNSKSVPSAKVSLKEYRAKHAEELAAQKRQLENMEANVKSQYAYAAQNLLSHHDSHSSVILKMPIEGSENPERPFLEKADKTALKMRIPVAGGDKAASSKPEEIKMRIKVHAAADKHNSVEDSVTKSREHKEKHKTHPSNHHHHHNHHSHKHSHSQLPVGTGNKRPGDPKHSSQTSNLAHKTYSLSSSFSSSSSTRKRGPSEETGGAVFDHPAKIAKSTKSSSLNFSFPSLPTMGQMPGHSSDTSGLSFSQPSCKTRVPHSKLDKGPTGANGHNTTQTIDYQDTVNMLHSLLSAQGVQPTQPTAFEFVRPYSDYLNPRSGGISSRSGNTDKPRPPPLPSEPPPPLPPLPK
Text: In vitro kinase assay analysis may be performed using standard techniques described in the art. These techniques are also used by commercial services providers in order to offer in vitro kinase activity assay services, e.g. the assays offered by Millipore Inc. (worldwide website www(dot)millipore.com), ProQinase GmbH (worldwide website www(dot)proqinase.de) and others.
In vitro kinase inhibition results shown in columns 7 to 9 in Table 1 were obtained by employing the KinaseProfiler™ service of Millipore and used to select compounds displaying specificity for CDK9. Specifically, it was intended to distinguish the CDK9-specific compounds from other compounds having significant inhibitory potency also with regard to other CDKs.

[2] = tested on: TNF-alpha inducible reporter gene; assay: Inhibition of TNF-alpha-induced reporter gene expression (luciferase) in HeLa-derived cell line; type: cell-based, human; conditions: remaining luciferase activity in presence of 3 μM of compound as ratio of DMSO-treated cells, TNF-alpha 50 ng/ml; for activity at 3 µM: Homo sapiens, 6 h, read-out: Efficacy (ratio to DMSO) TNF-alpha induced response; for Efficacy (ratio to DMSO) TNF-alpha induced response: 6 hours
Text: TNF-alpha responsive cell lines like the human HeLa cell line can be used to study cellular responses to TNF-alpha, e.g. transcriptional regulation of a transfected TNF-alpha responsive reporter gene, and effects of kinase inhibitors on this response.
In order to analyse compound effects on TNF-alpha mediated transcriptional response, a HeLa-derived cell line stably transfected with a TNF-alpha inducible reporter gene was used (Panomics Catalog No. RC0013). The cell line was obtained by co-transfection of a luciferase reporter gene (Panomics P/N LR0051) and pHyg into human cervical epithelial HeLa cells, followed by hygromycin selection. TNFα-induced luciferase activity was used to select clones from the hygromycin-resistant cells. The cell line was maintained and stimulated according to the manufacturer's instructions. Briefly, cells were seeded at 5×10^5/well in 1 ml of growth medium in a 12-well plate and incubated in a humidified incubator at 37° C. and 5% CO2 for 24 hours. Medium was replaced with 1 ml of serum free medium and compounds were added up to concentrations of […]. After 1 hour of incubation, TNF-alpha was added to achieve a final concentration of 50 ng/ml. The culture dish was further incubated in a humidified incubator at 37° C. and 5% CO2 for 6 hours, medium was removed and 100 μL of lysis buffer were added to each well and the assay for luciferase activity was performed according to assay manufacturer's (Promega P/N E1500) recommendations. For more information about this cell line, go to worldwide website www(dot)panomics.com.
Compound effects on TNF-alpha-induced reporter gene expression is shown in column 6 in Table 1 given below. Indicated is the remaining luciferase activity after incubation in presence of 3 μM of compound as a ratio of the activity of DMSO-treated cells without compound. Specifically, it was intended to distinguish cell permeable compounds from other compounds having significant inhibitory potency with regard to other CDKs, but fail to penetrate cells or are unstable under the conditions of the experiment.

Structure (SMILES) | CDK9 10 nM (RA in %) [1] [%] | CDK9 100 nM (RA in %) [1] [%] | activity at 3 µM [2] [%] | remaining activity at 0.01 µM [1] [%] | remaining activity at 0.1 µM [1] [%] | Efficacy (ratio to DMSO) TNF-alpha induced response [2]
COc1cc(F)ccc1-c1ccnc(NC(=O)[C@H]2CCC[C@H](NC(C)=O)C2)c1 (relative stereo) [Example 25, trans-3-Acetamido-N-(4-(4-fluoro-2-methoxyphenyl)-pyridin-2-yl)cyclohexanecarboxamide] | 99 | 78 | – | – | – | –
COc1cc(F)ccc1-c1ccnc(NC(=O)[C@H]2CCC[C@H](NC(C)=O)C2)c1 (relative stereo) [Example 26, trans-3-Acetamido-N-(4-(4-fluoro-2-methoxyphenyl)-pyridin-2-yl)cyclohexanecarboxamide] | 33 | 5 | – | – | – | –
COc1cc(F)ccc1-c1ccnc(NC(=O)[C@@H](C)c2cccnc2)c1 (stereo in doubt) [Example 12, N-(4-(4-Fluoro-2-methoxyphenyl)pyridin-2-yl)-2-(pyridin-3-yl)propanamide] | – | – | 83 | 94 | 96 | –
COc1cc(F)ccc1-c1ccnc(NC(=O)C2CCCCC2)c1 [Example 1, N-(4-(4-Fluoro-2-methoxyphenyl)pyridin-2-yl)cyclohexanecarboxamide] | – | – | 23 | 88 | 23 | –
COc1cc(F)ccc1-c1ccnc(NC(=O)CC2CCCCC2)c1 [Example 2, 2-Cyclohexyl-N-(4-(4-fluoro-2-methoxyphenyl)pyridin-2-yl)acetamide] | – | – | 49 | 78 | 33 | –
COc1cc(F)ccc1-c1ccnc(NC(=O)C2CCNCC2)c1 [Example 3, N-(4-(4-Fluoro-2-methoxyphenyl)pyridin-2-yl)piperidine-4-carboxamide] | – | – | 5 | 86 | 9 | –
COc1cc(F)ccc1-c1ccnc(NC(=O)[C@H]2CC[C@@H](N)CC2)c1 [Example 4, cis-4-Amino-N-(4-(4-fluoro-2-methoxyphenyl)pyridin-2-yl)cyclohexane-carboxamide] | – | – | 5 | 59 | 4 | –
COc1cc(F)ccc1-c1ccnc(NC(=O)C2CNC(=O)C2)c1 (stereo not shown) [Example 5, N-(4-(4-Fluoro-2-methoxyphenyl)pyridin-2-yl)-5-oxopyrrolidine-3-carboxamide] | – | – | 4 | 46 | 5 | –
COc1ccc(CC(=O)Nc2cc(-c3ccc(F)cc3OC)ccn2)cc1 [Example 6, N-(4-(4-Fluoro-2-methoxyphenyl)pyridin-2-yl)-2-(4-methoxyphenyl)-acetamide] | – | – | 7 | 68 | 16 | –
COc1cc(F)ccc1-c1ccnc(NC(=O)Cc2ccccc2)c1 [Example 7, N-(4-(4-Fluoro-2-methoxyphenyl)pyridin-2-yl)-2-phenylacetamide] | – | – | 8 | 78 | 17 | –
COc1cc(F)ccc1-c1ccnc(NC(=O)Cc2ccncc2)c1 [Example 8, N-(4-(4-Fluoro-2-methoxyphenyl)pyridin-2-yl)-2-(pyridin-4-yl)acetamide] | – | – | 4 | 93 | 7 | –
COc1cc(F)ccc1-c1ccnc(NC(=O)Cc2cccs2)c1 [Example 9, N-(4-(4-Fluoro-2-methoxyphenyl)pyridin-2-yl)-2-(thiophen-2-yl)acetamide] | – | – | 4 | 76 | 16 | –
COc1ccc(F)cc1-c1ccnc(NC(=O)[C@@H](C)c2ccccc2)c1 [Example 10, (2S)—N-(4-(5-Fluoro-2-methoxyphenyl)pyridin-2-yl)-2-phenylpropanamide] | – | – | 10 | 68 | 10 | –
COc1ccc([C@H](C)C(=O)Nc2cc(-c3ccc(F)cc3OC)ccn2)cc1 [Example 11, (2S)—N-(4-(4-Fluoro-2-methoxyphenyl)pyridin-2-yl)-2-(4-methoxyphenyl)-propanamide] | – | – | 7 | 36 | 6 | –
COc1cc(F)ccc1-c1ccnc(NC(=O)C(C)c2cccnc2)c1 (stereo not shown) [Example 13, N-(4-(4-Fluoro-2-methoxyphenyl)pyridin-2-yl)-2-(pyridin-3-yl)propanamide] | – | – | 4 | 66 | 2 | –
COc1ccc(CC(=O)Nc2cc(-c3ccc(F)cc3OC)ccn2)cn1 [Example 14, N-(4-(4-Fluoro-2-methoxyphenyl)pyridin-2-yl)-2-(6-methoxypyridin-3-yl)acetamide] | – | – | 4 | 25 | 7 | –
COc1cc(F)ccc1-c1ccnc(NC(=O)C(C)c2ccncc2)c1 (stereo not shown) [Example 15, N-(4-(4-Fluoro-2-methoxyphenyl)pyridin-2-yl)-2-(pyridin-4-yl)propanamide] | – | 64 | – | 84 | – | 0.83
COc1cc(F)ccc1-c1ccnc(NC(=O)C(C)c2ccncc2)c1 (stereo not shown) [Example 16, N-(4-(4-Fluoro-2-methoxyphenyl)pyridin-2-yl)-2-(pyridin-4-yl)propanamide] | 65 | 7 | – | – | – | 0.04
COc1ccc(F)cc1-c1ccnc(NC(=O)C(C)c2cccs2)c1 (stereo not shown) [Example 17, N-(4-(5-Fluoro-2-methoxyphenyl)pyridin-2-yl)-2-(thiophen-2-yl)propanamide] | 114 | 97 | – | – | – | 0.88
COc1ccc(F)cc1-c1ccnc(NC(=O)C(C)c2cccs2)c1 (stereo not shown) [Example 18, N-(4-(5-Fluoro-2-methoxyphenyl)pyridin-2-yl)-2-(thiophen-2-yl)propanamide] | 32 | 5 | – | – | – | 0.07
COc1cc(F)ccc1-c1ccnc(NC(=O)Cc2ccnc(Cl)c2)c1 [Example 19, 2-(2-Chloropyridin-4-yl)-N-(4-(4-fluoro-2-methoxyphenyl)pyridin-2-yl)acetamide] | – | – | 6 | 49 | 9 | –
COc1cc(F)ccc1-c1ccnc(NC(=O)Cc2ccc(N3CCN(C)CC3)cc2)c1 [Example 20, N-(4-(4-Fluoro-2-methoxyphenyl)pyridin-2-yl)-2-(4-(4-methylpiperazin-1-yl)phenyl)acetamide] | – | – | 8 | 39 | 5 | –
COc1cc(F)ccc1-c1ccnc(NC(=O)CC(C)c2ccncc2)c1 (stereo not shown) [Example 21, N-(4-(4-Fluoro-2-methoxyphenyl)pyridin-2-yl)-3-(pyridin-4-yl)butanamide] | – | – | 82 | 88 | 29 | –
COc1cc(F)ccc1-c1ccnc(NC(=O)C(C)Cc2ccncc2)c1 (stereo not shown) [Example 22, N-(4-(4-Fluoro-2-methoxyphenyl)pyridin-2-yl)-2-((pyridin-4-yl)methyl)-propanamide] | – | – | 98 | 93 | 39 | –
COc1cc(F)ccc1-c1ccnc(NC(=O)CC(C)c2cccnc2)c1 (stereo not shown) [Example 23, N-(4-(4-Fluoro-2-methoxyphenyl)pyridin-2-yl)-3-(pyridin-3-yl)butanamide] | – | – | 89 | 95 | 35 | –
COc1cc(F)ccc1-c1ccnc(NC(=O)C(C)Cc2cccnc2)c1 (stereo not shown) [Example 24, N-(4-(4-Fluoro-2-methoxyphenyl)pyridin-2-yl)-2-((pyridin-3-yl)methyl)-propanamide] | – | – | 104 | 92 | 32 | –
